Experiments:
[1] = tested on: HCT116; assay: MTT assay, growth inhibition by HDACi after 48 h; assay type: cell-based
Description: (§1) HT29, HCT116, SW480, SW620 colon adenocarcinomas cell lines, 911 human embryonic retinal cell lines and HEK293, a human embryonic kidney cell line expressing the adenoviral E1 protein were purchased from ATCC (American Tissue Culture Collection, Manassas, Va., USA).
HCT116 were cultured, in Mc Coy's 5A mediums with 10% heat-inactivated-FBS.
(§2) First, three different histone deacetylase inhibitors: Trichostatin A (TSA), an hydroxamic acid; Valproic Acid (VPA), a short-chain aliphatic acid, and sodium butyrate (Nabu), a short-chain aliphatic acid, were evaluated for their ability to induce inhibition of the growth of these cells after 48 h of treatment using an MTT assay.

[2] = tested on: SW480; assay: MTT assay, growth inhibition by HDACi after 48 h; assay type: cell-based; conditions: SW480, 48 h of treatment
Description: as §1
(§3) The same medium was used for SW480 and SW620 supplemented with 1 mM Sodium Pyruvate (Invitrogen/GIBCO)
as §2

[3] = tested on: SW620; assay: MTT assay, growth inhibition by HDACi after 48 h; assay type: cell-based
Description: as §1, §3, §2

[4] = tested on: HT29; assay: MTT assay, growth inhibition by HDACi after 48 h; assay type: cell-based
Description: as §1
HT29 and 911 were maintained in Dulbecco's modified Eagle's medium (DMEM; GIBCO) supplemented with 10% heat-inactivated fetal bovine serum (FBS; GIBCO).
as §2

[5] = tested on: HT29 cells; assay: MTT cell survival after oncolytic adenovirus with or without HDACi; assay type: cell-based; conditions: HT29, 3 days p.i., co-treatment with VPA and AE18
Description: Then the cells were treated with one of these HDACis (at concentrations in the range of IC50/2 and IC50) and transduced with the oncolytic adenovirus Δ24, at increasing multiplicity of infection (MOI). The survival of the cells at day 3 p.i. was evaluated using the MTT assay.
Colon carcinoma cells (HT29, HCT116, SW480, SW620) were plated in quadruplicates on 96-well plates (10^4 cells/well) and were treated with different MOI of Δ24 CRAd (ranging from 0 to 1000 vp/cell), VPA (0, IC25 or IC50) or a combination of CRAd and VPA. After 3 days, cell viability was measured with MTT assay and the results (means+SD) were expressed relative to non-infected cells treated with different VPA doses (0, IC25 and IC50). The results are representative of three experiments.
Colon carcinoma cells (HT29, HCT116) were treated in quadruplicates with Δ24 CRAd (MOI 15.6 vp/cell) without or with VPA (IC25 or IC50) and cell viability was measured at different time points thereafter using a MTT assay. The results (means+SD) were expressed relative to untreated or VPA (0, IC25 and IC50)-treated cells at the same time point. […] They are representative of two experiments.
The effects of a co-treatment with the oncolytic adenovirus Δ24 and the histone deacetylase inhibitor VPA on the survival of HT29 cells 3 days p.i. were compared with those of a co-treatment with VPA and the recombinant adenovirus AE18. […]

[6] = tested on: γH2AX; assay: γH2AX expression, confocal microscopy in HT29 cells; assay type: cell-based; conditions: HT29, 3 days, CRAd MOI 15.6, VPA IC25/IC50
Description: HT29 cells were seeded at 5·10^5 cells/well on 6-well plates and cultured overnight. Cells were treated with Δ24 CRAd (MOI 15.6 vp/cell), VPA (IC25, IC50) or both (CRAd+VPA), or with the non-replicative adenovirus AE18 during 72 h. Then non-adherent tumor cells and adherent tumor cells were detached with TrypLE™ Express (1X) (INVITROGEN) cytospined on slides (500 rpm, 5 min), washed with PBS and fixed with 4% paraformaldehyde for 30 min. After permeabilization with 0.5% Triton X-100 for 10 min, samples were blocked with 3% BSA for 30 min. Samples were exposed to primary antibodies (1:1,000 anti-γH2AX, for 1-2 h in PBS/BSA) followed by Alexa Fluor-conjugated secondary antibody staining for 1 h. When filamentous actin was also stained, tetramethyl-rhodamine B isothiocyanate-labeled phalloidin (SIGMA) was added with the secondary antibody incubation. Cells were washed four times with PBS after secondary antibody staining and then mounted on glass slides by using mounting medium with DAPI (VECTASHIELD; Vector Laboratories). All images were obtained by using the ZEISS LSM 510 confocal microscope.

[7] = tested on: p21; assay: p21 expression, Western blot; assay type: cell-based; conditions: HCT116, VPA IC25 and IC50, 24, 48, 72 h
Description: Colon cancer cells HT29 or HCT116 (5·10^5) in MW6 were treated with Δ24 CRAd (MOI 15.6 vp/cell), with or without VPA (IC25 and IC50). At 24, 48, and 72 h p.i., tumor cells were harvested and protein extracts were prepared in RIPA buffer (10 mM Tris base pH 8.8, NaCl 150 mM, EDTA 1 mM, NP-40 1%, deoxycholic acid 1%) supplemented with mini EDTA proteases (ROCHE LABORATORY). Proteins (25 μg) were run into a NuPage (INVITROGEN, France), transferred onto a nitrocellulose membrane, and probed with anti-p21/Waf1 mouse monoclonal antibody (EA10, CALBIOCHEM) and anti-actin antibody (AC-15, SIGMA-ALDRICH), followed by HRP-conjugated secondary antibody. p21 expression was quantified by IMAGE-J software and expressed as arbitrary units relative to untreated cells.

[8] = tested on: Δ24 CRAd; assay: CRAd production in HT29 cells, plaque assay on 911 cells; assay type: cell-based; conditions: HT29, CRAd MOI 15.6, VPA IC25 and IC50, 3 days
Description: Colon cancer HT29 cells (5·10^5) in 6-well plates were infected with Δ24 CRAd (MOI 15.6 vp/cell) alone or in combination with VPA (IC50 and IC25) in adequate medium with 2% FBS. After 1 h, 3 ml of growth medium with or without VPA was added. Then, cells were scrapped and cells and medium were harvested at different times post-infection (from day 1 to day 6). After submission of cells and medium to freeze-thaw cycles, the amount of infectious particles was determined by plaque assay on 911 cells and expressed as plaque forming unit (pfu)/ml.
In a second series of experimentations, HT29 cells (5·10^5 cells/well) in 6-well plates were infected with CRAd (MOI 15.6 vp/cell) with or without VPA (IC50 and IC25) in adequate medium supplemented with 2% FBS. After 1 h, 3 ml of growth medium with or without VPA was added. After 3 days, cells and medium were independently harvested and lysed by freeze-thaw cycles. Then, the amount of infectious particles was measured by plaque assay on 911 cells, and expressed as pfu/ml.

[9] = tested on: HT29 cells; assay: Cell size and nucleus morphology, Giemsa staining; assay type: cell-based; conditions: HT29, 72 h, CRAd MOI 15.6, VPA IC25/IC50
Description: HT29 cells in 6-well plates (5·10^5 cells/well) were untreated or treated with Δ24 CRAd (MOI 15.6 vp/cell), VPA (IC25, IC50) or both. After 72 h, cells were harvested, cytospined on slides, fixed with Wright and stained for 15 minutes in Giemsa solution. After washing, dry slides were mounted with a coverslip. Cells and nuclei observations were performed using phase-contrast microscopy.

[10] = tested on: viral hexon protein; assay: Immunohistochemistry of viral hexon protein in HT29 tumor xenografts; assay type: in vivo, mice; conditions: tumors excised at day 10, VPA 300 mg/kg
Description: The effects of VPA on CRAd replication were also tested in vivo in HT29 tumor xenografts of mice injected with PBS, Δ24 CRAd, or VPA (300 mg/kg)+CRAd as described in Example 2 above. Tumors were excised at day 10, and expression of viral hexon protein was evaluated by immunohistochemistry. Tumors were fixed in FineFix (from IGR) paraffin-embedded, and cut into 4-μm-thick sections. Hematoxylin-eosin-safranin staining was performed on all of the xenografts for analysis of morphology. The polyclonal anti-adenovirus hexon protein antibody AB 1056 (CHEMICON INTERNATIONAL, Temecula, Calif.), diluted 1:300, was detected by a biotinylated rabbit antigoat immunoglobulin antibody streptavidin-horseradish peroxidase conjugate (DAKO), and the chromogen diaminobenzidine. Slides were counterstained with hematoxylin.

[11] = tested on: E1A and fiber adenoviral proteins; assay: Western blot of early (E1A) and late (fiber) adenoviral proteins in HT29 cells; assay type: cell-based
Description: For determining viral protein expression, HT29 cells (5·10^5) in MW6 medium were treated with Δ24 CRAd (MOI 15.6 vp/cell), with or without VPA. At different time points p.i. (24 h, 48 h, and 72 h), tumor cells were harvested and protein extracts were prepared in RIPA buffer (10 mM Tris base pH 8.8, NaCl 150 mM, EDTA 1 mM, NP-40 1%, deoxycholic acid 1%) supplemented with mini EDTA proteases (Roche laboratory). In order to quantify the expression of early (E1A) and late (fiber) adenoviral proteins, proteins (25 μg) were run into a NuPage (Invitrogen, France), transferred onto a nitrocellulose membrane, and probed with anti-fiber antibody (AB4 clone 4D2, THERMOSCIENTIFIC), anti-E1A antibody (sc-430, Santa Cruz), or (as a control) anti-actin antibody (Clone AC-15, SIGMA-ALDRICH) followed by HRP-conjugated secondary antibody.

[12] = tested on: HT29 tumor xenografts; assay: HT29 tumor xenograft growth in nude mice; assay type: in vivo, athymic NU/NU female mice
Description: HT29 cells (10^7 cells) in 100 μl PBS were injected subcutaneously into the right flank of athymic NU/NU female mice housed at the Institut Gustave Roussy.
First, the sensitivity of tumor xenografts to VPA treatment was evaluated. When tumors reached 70-100 mm^3, mice were injected intraperitoneally with VPA (200 mg/kg or 300 mg/kg) or PBS in a volume of 200 μl five consecutive days per week. Tumor volume was evaluated twice a week for 4 weeks by measuring with calipers.
In a second series of experimentation, when tumors reached 70-100 mm^3, mice were first injected subcutaneously with Δ24 CRAd, or with a non-replicative adenovirus (AdCO1, deleted of region E1) or with PBS three consecutive days and every 7 days for 4 weeks. In parallel and beginning at day 4, mice received intraperitoneal injection of VPA (300 mg/kg) or PBS in a volume of 200 μl five consecutive days per week until the end of the protocol. Tumor growth was measured twice a week for 4 weeks.

[13] = tested on: γH2AX; assay: γH2AX expression, Western blot; assay type: cell-based; conditions: CRAd MOI 15.6, VPA 10mM (the IC50 of HT29; cell line and time not given)
Description: Colon carcinoma HT29 and HCT116 cells (5·10^5) in MW6 were treated with Δ24 CRAd (MOI 15.6 vp/cell), with or without VPA (IC25 and IC50). At indicated time points p.i., the cells were harvested and protein extracts were prepared in RIPA buffer (10 mM Tris base pH 8.8, NaCl 150 mM, EDTA 1mM, NP-40 1%, deoxycholic acid 1%) supplemented with mini EDTA proteases (ROCHE LABORATORY). Protein extracts were sonicated and centrifuged. Then, protein extracts (25 μg) were run into a NuPage (INVITROGEN, France), transferred onto a nitrocellulose membrane, and probed with anti-phospho-H2AX (Ser139) antibody (clone JBW301, MILLIPORE) or anti-actin antibodies (AC-15, SIGMA-ALDRICH) followed by HRP-conjugated secondary antibody. γH2AX was quantified by IMAGE-J software and expressed as arbitrary units relative to untreated cells.

[14] = tested on: HT29 cells; assay: LDH release cell death assay; assay type: cell-based; conditions: HT29, day 3, CRAd MOI 15.6 or VPA IC25/IC50 alone
Description: Colon carcinoma HT29 cells were untreated or treated with CRAd (MOI 15.6 vp/cell), VPA (IC25 or IC50) or both. After 3 days, cell death was quantified by determination of Lactate deshydrogenase (LDH) release in cell supernatant, using Tox Cytotoxicity Assay kit (TOX7, Sigma Aldrich, France). The results were expressed relative to total LDH level obtained with cells treated with identical conditions and permeabilized with triton 0.1%. The results (Mean+SD) are shown on FIG. 7. They are representative of two experiments.

[15] = Homo sapiens, HCT-116, HCT116, 48 h of treatment
[16] = Homo sapiens, SW-620, SW620, 48 h of treatment
[17] = Homo sapiens, HT-29, HT29, 48 h of treatment

For CC(/C=C/C(=O)NO)=C\[C@@H](C)C(=O)c1ccc(N(C)C)cc1 [TSA, Trichostatin A], the IC50 ([1]; HCT116, 48 h of treatment) was 0.035 µM, the IC50 [2] was 0.075 µM and the IC50 ([3]; SW620, 48 h of treatment) was 0.037 µM. For the same compound, the IC50 ([4]; HT29, 48 h of treatment) was 0.15 µM.

In the case of CCCC(=O)[O-].[Na+] [Nabu, sodium butyrate], the IC50 [1, 15] is reported as 1000 µM, the IC50 ([2]; Homo sapiens) is reported as 7000 µM and the IC50 [3, 16] is reported as 3000 µM. The IC50 [4, 17] was 4000 µM.

With CCCC(CCC)C(=O)O [VPA, Valproic Acid] the “effect of VPA on the cytotoxicity of the recombinant adenovirus AE18” value [5] was “no effect”, the “γH2AX expression (confocal microscopy)” value [6] was “much less than CRAd” and the “increase in p21 expression compared to untreated cells” value [7] was “up to 6 fold”. For the same compound, the “viral content in cell-associated and extracellular fractions” value [8] was “reduction of viral content”, the “cell size and nucleus morphology” value [9] was “increase in cell size and cell nuclei with well-defined shape” and the “amount of hexon protein in the tumor” value [10] was “decreased”. For the same compound, the E1A expression ([11]; HT29, CRAd MOI 15.6, 24 h, 48 h, 72 h) was “did not modify E1A expression”, the “expression of the fiber protein” value ([11]; HT29, CRAd MOI 15.6, day 1) was “strongly diminished” and the “expression of the fiber protein” value ([11]; HT29, CRAd MOI 15.6, day 2 and 3) was “minor effect”. For the same compound, the “kinetic of tumor growth vs PBS” value ([12]; VPA 200 mg/kg intraperitoneally, five consecutive days per week, 4 weeks) was “No difference”, the “tumor growth vs PBS” value ([12]; VPA 300 mg/kg intraperitoneally, five consecutive days per week, 4 weeks) was “significant delay in tumor growth” and the toxicity ([12]; VPA 300 mg/kg intraperitoneally, mice) was “did not trigger significant toxicity”. For the same compound, the “tumor growth compared to PBS-injected mice” value ([12]; second series: virus subcutaneously three consecutive days every 7 days, VPA 300 mg/kg i.p. from day 4, 4 weeks) was “reduction of tumor growth”, the IC50 [1, 15] was 1200 µM and the IC50 ([2]; Homo sapiens) was 10000 µM. The IC50 [3, 16] was 5000 µM, the “level of γH2AX relative to untreated cells” value [13] was 5.6 fold and the “LDH release compared to untreated cells” value [14] was “increase in LDH release”. It also gave an IC50 [4, 17] of 10000 µM.

Reference: patent US20140341857A1, “COMBINATION OF ONCOLYTIC AD[…] HISTONE DEACETYLASE INHIBITORS” (INSTITUT GUSTAVE ROUSSY, priority 2011, published 2014)
